In patent US5780642A, “Imidazole derivatives as therapeutic agents” (KNOLL Aktiengesellschaft, priority 1993, dated 1998):
Structures can show the parent of a compound that is named as a salt. Where two headings read alike, the source gives them in different places.

Experiments:
[1] = system: Zymosan Stimulated Macrophages (arachidonic acid release); assay: Test A: Inhibition of Arachidonic Acid Release from Zymosan Stimulated Macrophages; assay type: cell-based, mouse (female MF1 mice); conditions: Mus musculus, Macrophage, read-out: Test A IC50
Procedure, shortened: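 Peritoneal macrophages from female MF1 mice, labelled overnight with [3H]-arachidonic acid (1.6 μCi/ml), then exposed to compound 24 h unstimulated and re-dosed with zymosan stimulus for 5 h at 37 °C. Released radioactivity counted by scintillation; spontaneous release subtracted; IC50 from six concentrations (1–100 μM), quadruplicate wells.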

[2] = system: lymphocyte proliferation (BALB/c responder and C57BL/6 stimulator spleen cells); assay: Test C: Mixed Lymphocyte Reaction; assay type: cell-based, mouse (BALB/c and C57BL/6); conditions: Mus musculus, final concentration, read-out: IC50 (50% inhibition of the immune response)
Protocol: A mixed lymphocyte reaction (MLR) occurs when lymphocytes from two genetically dissimilar individuals, or inbred strains of mice are cultured together. An MLR results in the activation and proliferation of lymphocytes, which is measured by the incorporation of radiolabelled thymidine into the cellular DNA synthesised during cell division. A `one-way` MLR is used to determine the immunosuppressive activity of test compounds in vitro. In this reaction one population of spleen cells serves as the stimulator cells and is treated with mitomycin C to prevent cell division. Spleen cells from a second allogeneic population (responder cells) are untreated and when mixed with the stimulator cells are able to undergo division which is measured. The degree of proliferation is measured in the presence and absence of test compound to assess the immunosuppressive activity of the compound. The techniques for carrying out lymphocyte proliferation assays including MLRs are well known, eg Bradley, pages 156-166, in Mishell and Shiigi, Eds. Selected Methods in Cellular Immunology (Freeman, San Francisco, 1980); and Battisto et al, methods in Enzymology 1987; 150: 83-91. Various slight modifications of these techniques are in use and that used herein is described in Gibb, Webber and Bowen, J Immunological Methods 1985; 81: 107-113. The immunomodulant activity of the preferred compounds was determined in a mixed lymphocyte reaction (Test C) in the following manner: Mixed Lymphocyte Reaction Cell suspensions obtained from the spleens of female BALB/c and C57BL/6 strain mice of between 6 and 9 weeks of age were used as sources of responder and stimulator cells respectively. The mice were killed using a rising concentration of CO2 and the spleens removed aseptically and teased using a scalpel and forceps to produce a single cell suspension in Hanks balanced salt solution (HBSS). The suspensions were filtered through cell strainers (Falcon), sedimented by centrifugation and resuspended in Tris-buffered ammonium chloride pH 7.2 (medium D) to lyse the erythrocytes. The cells were sedimented again and washed twice in HBSS before resuspending in complete RPMI 1640 tissue culture medium (medium E). The C57BL/6 cells were resuspended to 9 mls per spleen and a solution of mitomycin C at 400 μg/ml in medium E added to give a final concentration of 40 μg/ml. After incubation of the C57BL/6 cells at 37° C. for 30 minutes in an atmosphere of 5% CO2 and 95% air, the cells were sedimented and washed 3 times in medium E. Both cell suspensions were diluted in medium E to 5×10^6 cells/ml. 100 μl of each of the responder and stimulator cell suspensions were aliquoted into the wells of 96 well flat bottom microtitre plates containing 50 μl of test compound at an appropriate dilution (initially 50 μM diluted in medium E from a stock solution at 100 mM in dimethyl sulphoxide) giving a final test compound concentration of 10 μM (final dilution). […] After four days of culture at 37° C. in a humidified atmosphere of 5% CO2 and 95% air, 1 μCi of tritiated thymidine in 20 μl of medium E was added to each well and the plates incubated for a further 24 hours. […] The filters were transferred to vials to which 2 mls of Packard Emulsifier-Safe scintillation fluid was added and the radioactivity from the incorporated thymidine was counted in a Packard liquid scintillation counter. […] The data were analysed to determine the percentage inhibition of lymphocyte proliferation by the test compound. […]

[3] = system: Carrageenan-induced pleurisy (migrating leukocytes); assay: Carrageenan-induced pleurisy in rats; assay type: in vivo; conditions: rat, p.o. at time of challenge and 24h and 48h thereafter; 10 mg/kg
Protocol: The most advantageous compounds of formula I were active in Tests A and B and also in the following test. Carrageenan-induced pleurisy in rats was carried out as described by Ackerman et al. J. Pharmacol. Exp. Therap. 1980, 215, 588-595. Migrating leukocytes were harvested by lavage of the thoracic cavity 72h after injection of 0.3 ml 1% λcarrageenan in sterile isotonic saline. Test compounds were administered p.o. at the time of challenge and 24h and 48 h thereafter.

[4] = system: Carrageenan-induced rat paw oedema; assay: Test B: Carrageenan-induced rat paw oedema test; assay type: in vivo; conditions: 100 mg/kg oral; active = 20% or greater inhibition of paw oedema in at least two out of three tests
Protocol: Test B was carried out in the following way: Carrageenan-induced rat paw oedema test Female rats, weight range 125-150 g were fasted overnight. One of the hind legs of each animal was marked with a line at the connection between the cuboid/navicular and calcaneus/talus bones. Groups of six rats were orally dosed at 10 ml/kg, in random order, with a given dose of the test compound given as a solution or suspension in 10% (w/v) aqueous acacia solution. One hour after dosing, 0.1 ml of 1% (w/v) sterile carrageenan λ in normal saline was injected deeply into the plantar surface of the marked hind foot of each rat. The volume of the foot (up to the marked line) was measured immediately after injection using duplicate water displacement readings. Three hours after injection the foot volume was measured again and the percentage increase in foot volume relative to the initial reading was calculated. The increase in foot volume (i.e. the degree of oedema) in drug treated animals when compared with that in the drug untreated control gave the degree of inhibition of paw oedema by the drug. Compounds were considered to be active in this test if they produced a 20% or greater inhibition of paw oedema in at least two out of three tests after oral dosing at 100 mg/kg. Statistical significance was assessed using the Student's t test for single dose studies and Dunnett's test for multiple dose studies. More advantageous compounds were active in both Tests A and B.

platelet aggregation = conditions: cited from earlier work
[5] = Indian Journal of Pharmacology 1973, 5, 428 / Pfl. Krankh. 1975, 3, 149; cited from earlier work
[6] = cited from earlier work
[7] = inhibition of arachidonic acid release, zymosan stimulated mouse peritoneal macrophages, tested at 100, 50, 20, 10, 5 and 1 μM, ≤100 μM considered active

Row | Compound | IC50 [1, 7] [µM] | IC50 [2] [nM] | activity in carrageenan-induced pleurisy at 10 mg/kg [3] | activity in Test B (inhibition of paw oedema) [4] | other results
1 | CC(C)(NCCCc1ncc[nH]1)c1ccccc1 [Example 87, 3-(imidazol-2-yl)-N-(1-methyl-1-phenylethyl)propylamine] | 25 | 5800 |  |  | 
2 | Clc1ccc(OCCNCCCCCn2ccnc2)cc1 [Example 16, N-[2-(4-chlorophenoxy)ethyl]-5-(imidazol-1-yl)pentylamine dihydrochloride hemihydrate] | 7 | 2800 | active |  | 
3 | CC(C)(CSc1ccc(Cl)cc1)NCCCn1ccnc1 [Example 19, N-[2-(4-Chlorophenylthio)-1,1-dimethylethyl]-3-(imidazol-1-yl)propylamine dihydrochloride] |  | 1700 |  |  | IC50 [1]: 8 µM
4 | CN(CCCn1ccnc1)CCOc1ccc(Cl)cc1 [Example 64, N-[2-(4-chlorophenoxy)ethyl]-3-(imidazol-1-yl)-N-methylpropylamine] | 32 |  | active | active | 
5 | CC(CCn1ccnc1)NCc1ccccc1 (centres unmarked) [Compound A] |  |  |  |  | inhibitory effect on platelet aggregation in vitro (platelet aggregation): inhibitory effect on platelet aggregation in vitro
6 | Cl.Cl.Clc1ccc2c(c1)CCC2NCCCn1ccnc1 (centres unmarked) [Example 88, N-(5-chloroindan-1-yl)-3-(imidazol-1-yl)propylamine dihydrochloride] | 28 |  | active | active | 
7 | c1ccc(OCCNCCCn2ccnc2)cc1 [Example 3, 3-(Imidazol-1-yl)-N-(2-phenoxyethyl)propylamine] | 30 |  |  | active | 
8 | CCC(NCC(C)N1CCOCC1)c1ccc(Cl)c(Cl)c1 (stereo not drawn) [N-[2-(4-Morpholino)propyl]-α-ethyl-3,4-dichlorobenzylamine] |  |  |  |  | antiinflammatory activity (alleged) [5]: alleged to have antiinflammatory activity; undesirable side-effects in mice [6]: wide range of undesirable side-effects in mice
9 | CC(CNCCCn1ccnc1)Oc1ccc(Cl)cc1 (centres unmarked) [Example 15, 2-(4-chlorophenoxy)-3'-(imidazol-1-yl)dipropylamine dihydrochloride] | 27 |  | active | active | 
10 | CC(C)(COc1ccc(Cl)cc1)NCCCn1ccnc1.Cl.Cl [Example 17, N-[2-(4-chlorophenoxy)-1,1-dimethylethyl]-3-(imidazol-1-yl)propylamine dihydrochloride] | 12 | 5900 | active |  | 
11 | Cc1nccn1CCCNCCOc1ccc(Cl)cc1 [Example 8, N-[2-(4-Chlorophenoxy)ethyl]-3-(2-methylimidazol-1-yl)propylamine] | 14 | 2400 |  | active | 
12 | Cl.Cl.Clc1ccc(OCCNCCCn2ccnc2)cc1 [Example 2, N-[2-(4-chlorophenoxy)ethyl]-3-(imidazol-1-yl)propylamine dihydrochloride] | 26 |  | active | active | 
13 | CC(C)(CNCCCn1ccnc1)Oc1ccccc1Cl [Example 4, 2-(2-Chlorophenoxy)-3'-(imidazol-1-yl)-2-methyldipropylamine] | 29 |  |  | active | 
